Assay: Directional transport of [14C]-olaparib across MDCKII control (empty vector) monolayers
Type: in vitro ADME, canine
Conditions: dog, MDCK
Procedure: Canine kidney epithelial cells, stably expressing human MDR1 cDNA (Madin-Darby canine kidney type II [MDCKII]–MDR1 cells) or empty vector (MDCKII control), were used to model the intact BBB and determine permeability coefficients of (^14C)-olaparib in the presence of ketoconazole (25 μM). Whole body autoradiography was performed on male pigmented rats after single oral administration of [^14C]-olaparib (15 mg/kg; 5 MBq/kg). For autoradiography studies, animal care and experiments were carried out in accordance with AstraZeneca guidelines, which comply with UK standards. […] Xenograft experiments were performed under the relevant UK Home Office Project Licence and carried out with ethical approval from the University of Glasgow under the Animal (Scientific Procedures) Act 1986 and the EU directive 2010. Mice were maintained in individually ventilated cages with environmental enrichment and following the guidelines of ARRIVE (Animal Research: Reporting of In Vivo Experiments). […] Ratiometric t-test analysis determined SER confidence intervals and P-values. Further details are available in the Supplementary Material.
Apparent permeability coefficients were calculated for apical to basolateral (Papp a‒b) and basolateral to apical transport (Papp b‒a) as described in Methods. […] (B) Single oral doses of 15 mg/kg [14C]-olaparib were administered to male pigmented rats that were subsequently culled, sectioned, and subjected to whole body autoradiography at the timepoints shown. Radioactivity was excluded from the central nervous system in all animals at all timepoints. […] Blood, tumor, and contralateral (non tumor bearing) brain were harvested and snap frozen at the time points shown. […] Note different y-axis scales.
Monolayers were cultured in Dulbeco’s Modified Eagle Medium (DMEM) supplemented with glucose (4.5 g/L), 10% fetal calf serum, penicillin and streptomycin on semi-permeable filter inserts (Transwell plates 3401, Costar, Cambridge, MA) for three days. Under these conditions MDR1 localises to the apical plasma membrane. Monolayer integrity was assessed by transepithelial electrical resistance (TEER) measurement then inserts washed with Hank’s Balanced Salt Solution (HBSS) and transferred to 12-well plates containing HBSS (to measure apical to basal transport, a – b) or [14C]-olaparib diluted in HBSS (dose solution, to measure basal to apical transport, b – a). After addition of dose solution (a – b) or HBSS (b – a) to the apical chamber, samples of apical and basolateral compartments were collected immediately after dosing and after 120 minutes incubation. Three concentrations of 14C-olaparib were tested (0.1, 1 and 10 µM), each in three replicates. Radioactivity was determined by liquid scintillation counting. […] Transport of olaparib or reference substrate cimetidine was determined in MDCKII-BCRP cells. Apparent permeability coefficients (Papp) were calculated:
Efflux ratio = Papp b - a /a - b = Papp b - a / Papp a - b (mean)

O=C(c1cc(Cc2n[nH]c(=O)c3ccccc23)ccc1F)N1CCN(C(=O)C2CC2)CC1 [olaparib, 4-[3-(4-cyclopropanecarbonylpiperazine-1-carbonyl)-4-fluorobenzyl]-2H-phthalazin-1-one]
Papp A→B at 120 min, 1 µM: 1.66 ×10⁻⁶ cm/s
Papp A→B at 120 min, 3 µM: 2.23 ×10⁻⁶ cm/s
Papp A→B at 120 min, 10 µM: 2.46 ×10⁻⁶ cm/s
Papp B→A at 120 min, 1 µM: 32 ×10⁻⁶ cm/s
Papp B→A at 120 min, 3 µM: 29.7 ×10⁻⁶ cm/s
Papp B→A at 120 min, 10 µM: 28.1 ×10⁻⁶ cm/s
